Measured values published in paper PMC6988309, “Preclinical efficacy for a novel tyrosine kinase inhibitor, ArQule 531 against acute myeloid leukemia” (Journal of Hematology & Oncology, 2020).

Experiments:
Ba/F3 FLT3-D835H = assay: MTT proliferation assay 72 h, Ba/F3 FLT3-D835H; type: cell-based, murine; conditions: Mus musculus, BaF3, read-out: Estimated absolute µM IC50 and 95% CI
Method: (§2) For the MOLM-13 resistant and the Ba/F3-FLT3-ITD/TKD cell lines, cells were treated for 72 h and cell viability was evaluated using MTT assay (Roche Diagnostics. Mannheim. Germany) according to the manufacturer’s instructions.

U937 = assay: MTS proliferation assay 72 h, U937; type: cell-based, human
Method: (§3) A total of 5000–30,000 cells from the lines above were treated in a 96-well plate for 72 h. CellTiter 96 Aqueous MTS reagent (Promega, Madison, WI) was added to cells followed by a 3-h incubation at 37 °C, 5% CO2. The absorbance was measured at 490 nm using DTX 880 plate reader and the half maximal inhibitory concentration (IC50) was calculated using GraphPad Prism 7 (GraphPad Software, La Jolla, CA) and SAS/STAT software (SAS v9.4 for Windows, SAS Institute, Inc., Cary, NC). For the MOLM-13 resistant and the Ba/F3-FLT3-ITD/TKD cell lines, cells were treated for 72 h and cell viability was evaluated using MTT assay (Roche Diagnostics. Mannheim. Germany) according to the manufacturer’s instructions.

[1] = test system: phosphorylated SYK (tyrosine 525/526); assay: Immunoblot of phospho-SYK Tyr525/526; type: cell-based, human; conditions: MOLM-13, MV4-11, and OCI-AML3, 10-min treatment
Method: Cell lines were serum starved overnight followed by a 10-min treatment. Cells were washed in ice-cold PBS then lysed in 1X Cell Lysis Buffer (CST) supplemented with proteinase and phosphatase inhibitors cocktail (Roche). Pierce BCA Protein Assay was used to quantify the protein lysates (Thermo Fisher Scientific, Waltham, MA). For Immunoblotting, 15–25 μg of protein lysate was prepared in 2X or 4X Laemmeli’s sample buffer (Bio-Rad Laboratories, Hercules, CA) and heated for 5 min at 100 °C. Samples were separated on 8% sodium dodecyl sulfate polyacrylamide gel and transferred onto nitrocellulose membrane (Bio-Rad Laboratories, Hercules, CA). The membranes were blocked for 1 h in Blocker BLOTTO Blocking Buffer (Thermo Fisher Scientific, Waltham, MA) or 5% non-fat milk followed by overnight incubation at 4 °C with primary antibody followed by HRP-conjugated secondary antibodies and visualized with chemiluminescent Pierce ECL Substrate (Thermo Fisher Scientific, Waltham, MA) on X-ray films.
Fig. 3 ARQ 531 modulates AML pro-survival kinases. Immunoblot analysis for MOLM-13, MV4-11, and OCI-AML3 AML cell lines (representative of 2-3 independent blots). […] Twenty to 25 μg of total protein lysate was loaded per lane. GAPDH, HSP90, or β-Actin were used as loading controls. a, b Modulation of phosphorylated SFK and downstream targets in FLT3-ITD cell lines MOLM-13 and MV-11, respectively. c, d Modulation of phosphorylated SYK and BTK in all three cell lines

[2] = test system: MOLM-13 disseminated AML xenograft; assay: MOLM-13 disseminated xenograft, single agent study (NSG mice); type: in vivo
Method: (§1) All experiments were conducted after approval of The Ohio State University Institutional Animal Care and Use Committee. Mice were randomized and enrolled for daily oral gavage (Q.D.P.O) treatment of vehicle or 50 mg/kg ARQ 531. Mice were treated until reaching early removal criteria (ERC) defined as 20% weight loss, lethargy, hind limb paralysis, moribund, anorexia, dehydration, hunched posture, severe diarrhea, breathing difficulties, or any abnormal neurological symptoms.
A total of 10,000 luciferase expressing MOLM-13 cells were engrafted via tail vein injection in NSG mice (The Jackson Laboratory, Bar Harbor, ME) for the single agent ARQ 531 study or NCG mice (Charles River Laboratories, Wilmington, MA) for the ARQ 531 + venetoclax (ARQ + Ven) combination study. For the first single agent ARQ 531 study, mice were treated 7 days post-engraftment. Due to the aggressiveness of the MOLM-13 model, mice were treated 4 days post-engraftment in the ARQ + Ven combination study. In both studies, mice were treated daily via oral gavage with vehicle (10% absolute alcohol, 10% Cremophor-EL, 80% saline) or 50 mg/kg ARQ 531, and 75 mg/kg venetoclax ± 50 mg/kg ARQ 531 for the combination study. Weekly in vivo imaging was performed using In Vivo Imaging System (IVIS) imager (PerkinElmer, Waltham, MA).
Kaplan–Meier survival curve in the MOLM-13 disseminated AML xenograft model. […]

[3] = MTT proliferation assay 72 h, Ba/F3 lines with FLT3-ITD, TKD or both (all lines together); type: cell-based, murine; conditions: Mus musculus, BaF3, range across cell lines, read-out: IC50 range over the Ba/F3 FLT3 mutant cell lines
MOLM-13 = assay: MTS proliferation assay 72 h, MOLM-13
Method: as §3

[4] = test system: MOLM-13 disseminated AML xenograft; assay: MOLM-13 disseminated xenograft, ARQ + Ven combination study (NCG mice); type: in vivo; conditions: 50 mg/kg ARQ 531 and/or 75 mg/kg venetoclax Q.D.P.O from 4 days post-engraftment until ERC; vehicle 25 days
Method: as §1, with “symptoms. […]” for “symptoms.”
Fig. 7 BCL2 inhibition improves ARQ 531 in vivo activity. a Kaplan–Meier survival curve in the MOLM-13 xenograft after mice were treated with vehicle (N = 9) or 50 mg/kg ARQ 531 Q.D.P.O (N = 9) or 75 mg/kg venetoclax Q.D.P.O (N = 10) or 50 mg/kg ARQ 531 and 75 mg/kg venetoclax combination Q.D.P.O (N = 10) at 4 days post engraftment until ERC. b Noninvasive serial whole body bioluminescence imaging of ventral view to monitor leukemia progression and regression post treatment. Mice were injected with 150 mg/kg Firefly D-Luciferin for evaluation of tumor burden as determined by whole body bioluminescence imaging using IVIS imager

[5] = test system: MOLM-13, MV4-11, and OCI-AML3 cell lines; assay: Annexin/PI apoptosis assay 72 h; type: cell-based, human; conditions: increasing concentrations of ARQ 531 or 50 nM gilteritinib
Method: Cells were treated for 72 h then stained for 20 min in 1X Annexin Binding buffer (BD Biosciences, Franklin Lakes, NJ) containing Annexin V-FITC and Propidium Iodine (Leinco Technologies, Fenton, MO). Live and apoptotic cells were measured using FC 500 flow cytometer and analyzed on Kaluza software (Beckman Coulter, Pasadena, CA).

Ba/F3 FLT3-ITD/D835H = assay: MTT proliferation assay 72 h, Ba/F3 FLT3-ITD/D835H; type: cell-based, murine; conditions: Mus musculus, BaF3, read-out: Estimated absolute µM IC50 and 95% CI
Method: as §2

Ba/F3 GFP+IL3 = assay: MTT proliferation assay 72 h, Ba/F3 GFP+IL3; type: cell-based, murine
Method: as §3

[6] = design: method as in PMID 30093506; conditions: cynomolgus monkeys, cited from earlier work
THP-1 = assay: MTS proliferation assay 72 h, THP-1; type: cell-based, human
Method: as §3

For `O=C(c1ccc(Oc2ccccc2)cc1Cl)c1c[nH]c2ncnc(N[C@@H]3CC[C@@H](CO)OC3)c12` [ARQ 531], the IC50 (Ba/F3 FLT3-D835H) was 1.74 µM, the “resistant to concentrations up to” value (U937) was > 10 µM and the “Estimated absolute µM IC50 (95% CI)” value (U937; 4-parameter logistic model) was “Unable to calculate IC50”. The “effect on phosphorylated SYK (tyrosine 525/526)” value [1] was “inhibited the phosphorylated levels of SYK”, the median survival ([2]; 50 mg/kg Q.D.P.O from 7 days post-engraftment until ERC, vehicle 21 days) was 23 days and the “median survival advantage vs vehicle” value ([2]; 50 mg/kg Q.D.P.O, log-rank p value = 0.002) was 2 days. The IC50 [3] was 1.2 to 7.6 µM, the IC50 (MOLM-13; Homo sapiens, MOLM-13, 72 h, read-out: Estimated absolute µM IC50 (95% CI)) was 0.69 µM and the “in vitro anti-proliferative activity” value (MOLM-13; MOLM-13, 1 µM, 72 hours MTS (ibrutinib 1 hour washout)) was “demonstrated in vitro anti-proliferative activity”. For the same compound, the survival [4] was 27 days, the “apoptosis / cytotoxicity (Annexin/PI)” value [5] was “induced cell apoptosis” and the IC50 (Ba/F3 FLT3-ITD/D835H) was 3.76 µM. For the same compound, the “Estimated absolute µM IC50 and 95% CI” value (Ba/F3 GFP+IL3) was “Unable to calculate IC50”, the “plasma half-life (t1/2)” value ([6]; not calculated due to absence of elimination phase) was “long plasma half-life” and the Tmax ([6]; single 10 mg/kg oral dose) was ≤ 6 h. For the same compound, the oral bioavailability ([6]; single 10 mg/kg oral dose) was 72%, the “share of peak concentration present at 24 h” value ([6]; single 10 mg/kg oral dose) was 75% and the Cmax ([6]; single 10 mg/kg oral dose, read-out: maximum concentration (Cmax)) was 9 µM. The “resistant to concentrations up to” value (THP-1) was > 10 µM and the “Estimated absolute µM IC50 (95% CI)” value (THP-1; 4-parameter logistic model) was “Unable to calculate IC50”.
